How the values were obtained:
mouse = experiment: Chemically-induced (acetic acid) abdominal constrictions in the mouse; assay type: in vivo; settings: mean ± S.E.M.
Description: Albuterol or vehicle 1 was dosed intraperitoneally (−25 min), followed by a subcutaneous dose of indomethacin or vehicle 2 (−20 min), prior to acetic acid (0.7% v/v) administration (0 min).

rat = experiment: Tail-flick test: antinociception of albuterol, morphine and morphine plus albuterol (% MPE, A50); assay type: in vivo
From the text: The tail flick test was first described by D'Amour and Smith (1941), and remains essentially unchanged in application. (See generally D'Amour, F. E. and Smith, D. L., “A method for determining loss of pain sensation”, J. Pharmacol. Exp. Therap., 72:74-79(1941); Dewey, D. L. and Harris, L. S., The Tail-flick test. In: S. Ehrenpreis and A. Neidle (Eds.), Methods in Narcotic Research, Marcel Dekker, Inc., New York, 1975, pp. 101-109; and Dubner, R. and Ren, K., “Assessing transient and persistent pain in animals.” In: P. D. Wall and R. Melzack (Eds.), Textbook of Pain, Churchill Livingstone, London, 1999, pp. 359-369). Quite simply, the tail of a rat or mouse is exposed to radiant heat, and the latency to withdraw is determined. The basal heat intensity is set so that naive rats withdraw their tails within 2 to 3 sec. A cut-off latency of 10 sec (i.e., 3 to 4 times basal control value) is commonly employed to prevent tissue damage. An alternative to using radiant heat is to dip the tail into a water bath maintained at a fixed temperature, usually in the moderately noxious range of about 52° C. or 55° C. One advantage of a water bath is that the temperature is kept constant.
The tail-flick test is considered to be very robust in that weak analgesic agents are not detected by this test. […] It is even possible to perform the tail-flick test in lightly anesthetized animals.
Data obtained from the rat tail-flick test conform to a graded dose-response curve. The raw tail withdrawal latencies are converted to a % MPE (% maximal possible effect) by the formula:
% MPE=100×(test latency−basal latency)/(cut-off−basal latency).
This formula constrains the data to fit between 0% MPE and 100% MPE. […] These calculations then allow for the determination of relative potencies of different drugs and allow for the isobolographic determination of possible synergistic effects. Instances where the test latency is less than the basal latency produces a negative % MPE, which is meaningless unless one is measuring hyperalgesia.
Absent any interaction, the dose-effect curves for morphine alone and in the presence of albuterol should be identical.
This manipulation allowed the construction of dose-effect curves and more importantly, the calculation of the A50 (dose required to produce a 50% effect) and the confidence intervals. The data were converted to % MPE based on the equation:
% MPE=(response−baseline)/(8.2−baseline)×100.
Baseline refers to the pre-treatment tail-flick latencies, and 8.2 represents the maximal effect. […] The A50 values and confidence intervals for each of the dose-effect curves were determined from linear regression analysis of the logdose-effect curves. Significant shifts in the dose-effect curves were indicated by Student's t-statistic applied to the A50 values obtained for morphine and morphine plus albuterol, and was performed with our custom-designed data analysis software.
The SEM values are approximate and are derived as a ratio of the SEM of the raw data to the respective mean and adjusted as a function of % MPE.

Structure (SMILES): COc1ccc2c(c1)c(CC(=O)O)c(C)n2C(=O)c1ccc(Cl)cc1 [Indomethacin]
- Number of Abdominal Constrictions Exhibited in Time Period (min) Post Acetic Acid (mouse; indomethacin 0.1 mg/kg s.c., 5-10 min): 14.3 ± 2.6
- Number of Abdominal Constrictions Exhibited in Time Period (min) Post Acetic Acid (mouse; indomethacin 0.1 mg/kg s.c., 5-15 min): 23.6 ± 3.7
- Number of Abdominal Constrictions Exhibited in Time Period (min) Post Acetic Acid (mouse; indomethacin 1 mg/kg s.c., 5-10 min): 7.5 ± 2.0
- Number of Abdominal Constrictions Exhibited in Time Period (min) Post Acetic Acid (mouse; indomethacin 1 mg/kg s.c., 5-15 min): 14.5 ± 2.9
- Number of Abdominal Constrictions Exhibited in Time Period (min) Post Acetic Acid (mouse; indomethacin 3 mg/kg s.c., 5-10 min): 6.8 ± 1.7
- Number of Abdominal Constrictions Exhibited in Time Period (min) Post Acetic Acid (mouse; indomethacin 3 mg/kg s.c., 5-15 min): 12.2 ± 3.1
- Number of Abdominal Constrictions Exhibited in Time Period (min) Post Acetic Acid (mouse; indomethacin 5 mg/kg s.c., 5-10 min): 8.3 ± 2.0
- Number of Abdominal Constrictions Exhibited in Time Period (min) Post Acetic Acid (mouse; indomethacin 5 mg/kg s.c., 5-15 min): 14.1 ± 3.4
- Number of Abdominal Constrictions Exhibited in Time Period (min) Post Acetic Acid (mouse; indomethacin 10 mg/kg s.c., 5-10 min): 6.8 ± 1.7
- Number of Abdominal Constrictions Exhibited in Time Period (min) Post Acetic Acid (mouse; indomethacin 10 mg/kg s.c., 5-15 min): 11.9 ± 2.9
- Number of Abdominal Constrictions Exhibited in Time Period (min) Post Acetic Acid (mouse; indomethacin 30 mg/kg s.c., 5-10 min): 10.5 ± 2.3
- Number of Abdominal Constrictions Exhibited in Time Period (min) Post Acetic Acid (mouse; indomethacin 30 mg/kg s.c., 5-15 min): 17.6 ± 3.2
- Number of Abdominal Constrictions Exhibited in Time Period (min) Post Acetic Acid (mouse; indomethacin 50 mg/kg s.c., 5-10 min): 1.4 ± 0.6
- Number of Abdominal Constrictions Exhibited in Time Period (min) Post Acetic Acid (mouse; indomethacin 50 mg/kg s.c., 5-15 min): 4.5 ± 1.3

Structure (SMILES): CN1CC[C@]23c4c5ccc(O)c4O[C@H]2[C@@H](O)C=C[C@H]3[C@H]1C5 [Morphine]
- A50 (95% confidence interval), dose required to produce a 50% effect (rat; 30 minutes after injection): 4.53 mg/kg
- A50 (95% confidence interval), dose required to produce a 50% effect (rat; 30 minutes after injection, listed as Morphine alone): 4.53 (3.92 to 5.24) mg/kg
- A50 (95% confidence interval), dose required to produce a 50% effect (rat; 60 minutes after injection): 9.94 mg/kg
- A50 (95% confidence interval), dose required to produce a 50% effect (rat; 60 minutes after injection, listed as Morphine alone): 9.94 (9.84 to 10.04) mg/kg
- dose-dependency of antinociception (FIG. 1) (rat; dose-effect curves as % MPE): demonstrated dose-dependent antinociception
- antinociceptive effect (in words) (rat; morphine 0.3 mg/kg to 2.5 mg/kg): minimal effects
- Antinociceptive effect (as % MPE) (rat; morphine alone 0.3125 mg/kg, 30 minutes): 25.86 ± 3.31 % MPE
- Antinociceptive effect (as % MPE) (rat; morphine alone 0.3125 mg/kg, 60 minutes): 24.14 ± 1.27 % MPE
- Antinociceptive effect (as % MPE) (rat; morphine alone 0.625 mg/kg, 30 minutes): 22.41 ± 1.82 % MPE
- Antinociceptive effect (as % MPE) (rat; morphine alone 0.625 mg/kg, 60 minutes): 20.69 ± 1.72 % MPE
- Antinociceptive effect (as % MPE) (rat; morphine alone 1.25 mg/kg, 30 minutes): 33.33 ± 2.27 % MPE
- Antinociceptive effect (as % MPE) (rat; morphine alone 1.25 mg/kg, 60 minutes): 19.3 ± 2.14 % MPE
- Antinociceptive effect (as % MPE) (rat; morphine alone 2.5 mg/kg, 30 minutes): 28.57 ± 2.04 % MPE
- Antinociceptive effect (as % MPE) (rat; morphine alone 2.5 mg/kg, 60 minutes): 21.43 ± 1.69 % MPE
- Antinociceptive effect (as % MPE) (rat; morphine alone 5 mg/kg, 30 minutes): 44.07 ± 3.6 % MPE
- Antinociceptive effect (as % MPE) (rat; morphine alone 5 mg/kg, 60 minutes): 13.56 ± 2.19 % MPE
- Antinociceptive effect (as % MPE) (rat; morphine alone 10 mg/kg, 30 minutes): 91.07 ± 14.19 % MPE
- Antinociceptive effect (as % MPE) (rat; morphine alone 10 mg/kg, 60 minutes): 50 ± 9.26 % MPE

From US20040209850A1, “Methods of treating pain and compositions for use therefor” (TheraQuest Biosciences, LLC, priority 2003, published 2004)
